Measurements reported in ChEMBL document CHEMBL4052763, “Discovery of dual Axl/VEGF-R2 inhibitors as potential anti-angiogenic and anti-metastatic drugs for cancer chemotherapy” (Bioorg Med Chem Lett, 2017).

How the values were obtained:
[1] = target: T1, Tyrosine-protein kinase receptor UFO (Homo sapiens, UniProt P30530); assay: Inhibition of Axl in human HeLa cells assessed as reduction in AKT phosphorylation at Ser 473 residues pre-incubated for 1 hr before preclustered anti-Axl antibody stimulation by Western blot analysis; type: cell-based
T1 sequence (P30530 whole entry): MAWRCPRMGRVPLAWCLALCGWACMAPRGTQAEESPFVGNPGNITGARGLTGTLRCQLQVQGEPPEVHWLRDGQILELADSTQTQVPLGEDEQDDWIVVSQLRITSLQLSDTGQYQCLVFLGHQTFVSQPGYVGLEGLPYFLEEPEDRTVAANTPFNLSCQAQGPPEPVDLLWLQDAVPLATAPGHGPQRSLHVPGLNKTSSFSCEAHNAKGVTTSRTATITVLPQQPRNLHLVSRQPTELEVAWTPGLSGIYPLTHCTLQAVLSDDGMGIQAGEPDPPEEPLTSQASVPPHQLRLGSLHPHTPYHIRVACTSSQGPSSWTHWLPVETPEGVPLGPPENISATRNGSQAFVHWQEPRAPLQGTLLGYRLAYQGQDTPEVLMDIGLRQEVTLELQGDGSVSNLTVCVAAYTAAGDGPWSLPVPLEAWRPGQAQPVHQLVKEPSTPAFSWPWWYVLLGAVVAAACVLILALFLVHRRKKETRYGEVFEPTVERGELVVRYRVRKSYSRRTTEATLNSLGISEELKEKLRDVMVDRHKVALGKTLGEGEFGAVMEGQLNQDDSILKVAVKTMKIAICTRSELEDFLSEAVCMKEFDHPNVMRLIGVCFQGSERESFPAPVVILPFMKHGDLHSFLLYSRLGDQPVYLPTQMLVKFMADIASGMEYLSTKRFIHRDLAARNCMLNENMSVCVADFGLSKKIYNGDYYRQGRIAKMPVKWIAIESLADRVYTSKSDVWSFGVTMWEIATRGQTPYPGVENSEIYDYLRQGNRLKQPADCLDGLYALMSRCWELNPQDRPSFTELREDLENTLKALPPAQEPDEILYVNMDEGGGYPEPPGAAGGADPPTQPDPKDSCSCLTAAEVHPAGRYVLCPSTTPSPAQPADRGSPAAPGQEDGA

[2] = target: Vascular endothelial growth factor receptor 2 (Homo sapiens, UniProt P35968); assay: Inhibition of VEGF stimulated VEGFR2 phosphorylation at […] residues in HUVEC preincubated for 1 hr followed by VEGF addition measured after 5 mins by Western blot analysis
[3] = Clearance in iv dosed Sprague-Dawley rat; type: ADME, organism-based; conditions: in vivo
[4] = Volume of distribution at steady state in iv dosed Sprague-Dawley rat; type: ADME, organism-based; conditions: in vivo, read-out: Vdss
[5] = Half life in iv dosed Sprague-Dawley rat; type: ADME, organism-based; conditions: in vivo
Insulin receptor = Insulin receptor (Homo sapiens, UniProt P06213); assay: Inhibition of insulin stimulated INSR phosphorylation in human HeLa cells preincubated for 1 hr followed by insulin addition measured after 5 mins by Western blot analysis; type: cell-based
[6] = Aqueous solubility of the compound; type: physicochemical; conditions: buffer
[7] = Oral bioavailability in Sprague-Dawley rat; type: ADME, organism-based; conditions: in vivo
MDA-MB-231 [8] = assay: Antitumor activity against human MDA-MB-231 cells xenografted in nu/nu mouse assessed as tumor growth inhibition at 80 mg/kg, qd after 21 days relative to control; type: functional; conditions: MDA-MB-231, 504 h, read-out: TGI
CAKI-1 [9] = assay: Antitumor activity against human Caki1 cells xenografted model assessed as tumor growth inhibition at 80 mg/kg, po qd relative to control; type: functional; conditions: CAKI-1, po, read-out: TGI
Mus musculus [10] = assay: Inhibition of fibroblast growth factor-induced neovascularization in mouse corneal micropocket at 80 mg/kg, qd relative to control; type: functional
[11] = target: T1, Tyrosine-protein kinase receptor UFO; assay: Inhibition of N-terminal GST-tagged human Axl (464 to 885 end residues) cytoplasmic domain expressed in baculovirus expression system using HS1 peptide as substrate after 40 mins in presence of ATP by fluorescence polarization assay
MDA-MB-231 [12] = assay: Antitumor activity against human MDA-MB-231 cells xenografted in nu/nu mouse assessed as tumor growth delay at 125 mg/kg, po bid after 21 days relative to control; type: functional
CAKI-1 [13] = assay: Antitumor activity against human Caki1 cells xenografted model assessed as tumor growth inhibition at 85 mg/kg, po bid relative to control; type: functional; conditions: CAKI-1, po, read-out: TGI
MDA-MB-231 [14] = assay: Antitumor activity against human MDA-MB-231 cells xenografted in nu/nu mouse assessed as tumor growth inhibition at 85 mg/kg, po bid after 21 days relative to control; type: functional; conditions: MDA-MB-231, po, 504 h, read-out: TGI
MDA-MB-231 [15] = assay: Antitumor activity against human MDA-MB-231 cells xenografted in nu/nu mouse assessed as tumor growth inhibition at 125 mg/kg, po bid after 21 days relative to control; type: functional; conditions: MDA-MB-231, po, 504 h, read-out: TGI
Mus musculus [16] = assay: Inhibition of fibroblast growth factor-induced neovascularization in mouse corneal micropocket at 100 mg/kg, bid relative to control; type: functional
Mus musculus [17] = assay: Inhibition of fibroblast growth factor-induced neovascularization in mouse corneal micropocket at 50 mg/kg, bid relative to control; type: functional
Mus musculus [18] = assay: Toxicity in nu/nu mouse xenografted with human MDA-MB-231 cells at 125 mg/kg, po bid after 21 days; type: organism-based; conditions: in vivo, 504 h
Mus musculus [19] = assay: Toxicity in nu/nu mouse xenografted with human MDA-MB-231 cells at 85 mg/kg, po bid after 21 days; type: organism-based; conditions: in vivo, 504 h

Chain of Insulin receptor (P06213 28-758 limits assumed): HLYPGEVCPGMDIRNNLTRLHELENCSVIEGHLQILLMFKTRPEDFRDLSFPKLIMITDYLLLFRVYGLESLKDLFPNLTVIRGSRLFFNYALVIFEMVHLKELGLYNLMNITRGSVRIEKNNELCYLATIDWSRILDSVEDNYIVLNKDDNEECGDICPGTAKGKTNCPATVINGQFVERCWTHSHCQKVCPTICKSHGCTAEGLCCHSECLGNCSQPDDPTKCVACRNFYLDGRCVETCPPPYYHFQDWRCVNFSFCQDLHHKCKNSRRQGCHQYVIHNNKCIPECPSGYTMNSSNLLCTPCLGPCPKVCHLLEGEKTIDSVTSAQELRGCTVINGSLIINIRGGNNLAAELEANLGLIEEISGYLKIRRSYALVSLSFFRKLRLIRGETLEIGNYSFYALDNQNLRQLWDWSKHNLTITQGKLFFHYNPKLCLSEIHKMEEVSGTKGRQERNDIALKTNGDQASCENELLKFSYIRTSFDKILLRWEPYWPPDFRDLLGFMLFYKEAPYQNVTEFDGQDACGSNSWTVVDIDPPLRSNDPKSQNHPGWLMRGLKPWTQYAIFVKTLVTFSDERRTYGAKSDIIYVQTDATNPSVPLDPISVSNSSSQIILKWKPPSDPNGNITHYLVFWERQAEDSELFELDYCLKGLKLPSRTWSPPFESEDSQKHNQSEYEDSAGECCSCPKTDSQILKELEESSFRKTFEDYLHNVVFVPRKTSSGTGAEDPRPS
Chain of Insulin receptor (P06213 763-1382 limits assumed): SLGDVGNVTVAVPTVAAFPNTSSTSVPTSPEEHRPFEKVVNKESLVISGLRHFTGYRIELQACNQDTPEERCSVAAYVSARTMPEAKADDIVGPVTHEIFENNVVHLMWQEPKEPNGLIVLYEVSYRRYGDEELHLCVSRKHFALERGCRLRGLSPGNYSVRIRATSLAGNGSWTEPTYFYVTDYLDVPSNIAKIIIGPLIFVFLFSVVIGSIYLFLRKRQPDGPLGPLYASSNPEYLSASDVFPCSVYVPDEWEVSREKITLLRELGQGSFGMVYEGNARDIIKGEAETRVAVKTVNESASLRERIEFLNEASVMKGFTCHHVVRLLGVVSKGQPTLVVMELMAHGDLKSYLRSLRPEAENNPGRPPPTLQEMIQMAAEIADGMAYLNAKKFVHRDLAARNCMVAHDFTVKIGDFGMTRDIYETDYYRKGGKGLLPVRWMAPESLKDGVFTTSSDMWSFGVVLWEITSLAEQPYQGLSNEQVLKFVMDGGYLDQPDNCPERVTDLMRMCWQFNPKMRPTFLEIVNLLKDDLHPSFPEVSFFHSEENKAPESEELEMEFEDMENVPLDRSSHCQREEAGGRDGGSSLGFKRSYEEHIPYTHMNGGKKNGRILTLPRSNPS
Chain of Vascular endothelial growth factor receptor 2 (P35968 whole entry): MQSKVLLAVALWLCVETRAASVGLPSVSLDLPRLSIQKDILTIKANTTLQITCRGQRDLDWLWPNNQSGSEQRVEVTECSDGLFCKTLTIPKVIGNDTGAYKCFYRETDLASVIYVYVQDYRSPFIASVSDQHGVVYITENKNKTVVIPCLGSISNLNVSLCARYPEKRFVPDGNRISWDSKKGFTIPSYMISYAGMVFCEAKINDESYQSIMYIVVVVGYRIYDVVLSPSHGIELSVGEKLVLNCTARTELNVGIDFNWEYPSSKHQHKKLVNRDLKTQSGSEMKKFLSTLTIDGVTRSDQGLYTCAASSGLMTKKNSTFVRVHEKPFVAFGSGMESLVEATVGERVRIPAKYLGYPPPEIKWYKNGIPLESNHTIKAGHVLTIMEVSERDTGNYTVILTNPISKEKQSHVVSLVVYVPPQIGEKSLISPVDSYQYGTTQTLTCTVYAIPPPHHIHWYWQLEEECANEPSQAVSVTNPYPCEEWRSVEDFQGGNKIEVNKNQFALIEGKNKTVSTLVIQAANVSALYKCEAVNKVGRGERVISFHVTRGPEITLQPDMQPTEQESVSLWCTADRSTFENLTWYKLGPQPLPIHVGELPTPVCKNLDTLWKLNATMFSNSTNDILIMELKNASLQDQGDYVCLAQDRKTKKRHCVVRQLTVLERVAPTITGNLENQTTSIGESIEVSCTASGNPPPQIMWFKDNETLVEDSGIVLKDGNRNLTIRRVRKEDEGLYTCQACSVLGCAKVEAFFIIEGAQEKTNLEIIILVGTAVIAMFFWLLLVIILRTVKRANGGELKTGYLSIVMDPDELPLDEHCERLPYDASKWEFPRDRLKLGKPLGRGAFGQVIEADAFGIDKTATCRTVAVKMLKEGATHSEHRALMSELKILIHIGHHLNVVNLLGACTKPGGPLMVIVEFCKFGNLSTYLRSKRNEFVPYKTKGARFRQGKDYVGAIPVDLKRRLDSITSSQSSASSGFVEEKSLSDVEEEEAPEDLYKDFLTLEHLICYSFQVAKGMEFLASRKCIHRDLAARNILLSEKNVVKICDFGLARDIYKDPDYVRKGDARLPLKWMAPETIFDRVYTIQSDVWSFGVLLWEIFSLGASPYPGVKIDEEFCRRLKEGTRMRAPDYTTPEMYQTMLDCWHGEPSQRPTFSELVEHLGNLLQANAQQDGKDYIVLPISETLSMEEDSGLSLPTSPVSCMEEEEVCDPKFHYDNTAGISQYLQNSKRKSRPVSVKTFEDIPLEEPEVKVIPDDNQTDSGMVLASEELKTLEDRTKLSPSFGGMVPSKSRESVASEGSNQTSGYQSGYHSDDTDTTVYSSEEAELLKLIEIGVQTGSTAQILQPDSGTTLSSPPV

| Structure (SMILES) | EC50 [1] [nM] | EC50 [2] [nM] | EC50 (Insulin receptor) [nM] | other results |
| --- | --- | --- | --- | --- |
| Nc1nc(Nc2ccc(N3CCN(C4CC5CCC4C5)CC3)c(F)c2)nn1-c1ncnc2ccsc12 (racemic) | 20 | – | – | – |
| Nc1nc(Nc2ccc(N3CCN(C4CC5CCC4C5)CC3)cc2)nn1-c1ncnc2ccc(F)cc12 (racemic) | – | 146 | – | clearance [3]: 44 mL/min/kg; Vd [4]: 7.9 L/kg; half-life [5]: 2.3 h |
| Nc1nc(Nc2ccc(OCCN3CCCC3)cc2)nn1-c1ncnc2c1sc1ccccc12 | – | – | 300 | – |
| Cc1csc2c(-n3nc(Nc4ccc(N5CCN(C6CC7CCC6C7)CC5)c(F)c4)nc3N)ncnc12 (racemic) | 62 | 90 | – | – |
| Cc1csc2c(-n3nc(Nc4ccc(OCCN5CCCC5)cc4)nc3N)nc(Cl)nc12 | – | – | 582 | – |
| Nc1nc(Nc2ccc(OCCN3CCCC3)c(F)c2)nn1C(=O)c1ccc(N2CCOCC2)cc1 | 47 | – | 2750 | solubility [6]: Insoluble; bioavailability [7]: < 1% |
| Nc1nc(Nc2ccc(N3CCN(C4CC5CCC4C5)CC3)cc2)nn1-c1ncnc2ccc(Cl)cc12 (racemic) | – | 196 | – | – |
| Nc1nc(Nc2ccc(N3CCN(C4CC5CCC4C5)CC3)cc2)nn1-c1ncnc2c1sc1ncccc12 (racemic) | 52 | 24 | – | – |
| COc1cc2ncnc(-n3nc(Nc4ccc(N5CCN(C)CC5)cc4)nc3N)c2cc1OC | 39 | 3 | 4580 | – |
| Cc1nc(-n2nc(Nc3ccc(OCCN4CCCC4)cc3)nc2N)c2ccccc2n1 | – | – | 320 | – |
| COc1cc2ncnc(-n3nc(Nc4ccc(N5CCN(C6CCCCC6)CC5)c(F)c4)nc3N)c2cc1OC | 55 | 26 | 5030 | – |
| COc1cc2ncnc(-n3nc(Nc4ccc(OC5CCCN(C)C5)cc4)nc3N)c2cc1OC (configuration not stated) | 52 | 4 | 1800 | – |
| CCN(CC)CCNC(=O)c1c(C)[nH]c(/C=C2\C(=O)Nc3ccc(F)cc32)c1C [SUNITINIB] | – | – | – | inhibition in vivo at 80 mg/kg (MDA-MB-231 [8]): 84%; inhibition in vivo at 80 mg/kg (CAKI-1 [9]): 85%; inhibition in vivo at 80 mg/kg (Mus musculus [10]): 78% |
| COc1cc2ncnc(-n3nc(Nc4ccc(N5CC[C@H](N(C)C)C5)cc4)nc3N)c2cc1OC | 193 | 19 | 4760 | – |
| COc1cc2ncnc(-n3nc(Nc4ccc(C5CCN(C)CC5)cc4)nc3N)c2cc1OC | 16 | 14 | 1320 | – |
| COc1cc2ncnc(-n3nc(Nc4ccc(OCCN5CCCC5)c(Cl)c4)nc3N)c2cc1OC | – | – | 4170 | – |
| Cc1csc2c(-n3nc(Nc4ccc(N5CCN(C6CC7CCC6C7)CC5)cc4)nc3N)nc(Cl)nc12 (racemic) | – | 65 | – | clearance [3]: 11.5 mL/min/kg; Vd [4]: 4.4 L/kg; half-life [5]: 4.9 h |
| Nc1nc(Nc2ccc(N3CCN(C4CC5CCC4C5)CC3)cc2)nn1-c1ncnc2ccsc12 (racemic) | 21 | 24 | – | – |
| Nc1nc(Nc2ccc(OCCN3CCCC3)cc2)nn1-c1ncnc2c1CCC2 | – | – | 1010 | – |
| Nc1nc(Nc2ccc(N3CCN(C4CC5CCC4C5)CC3)c(Cl)c2)nn1-c1ncnc2sccc12 (racemic) | 85 | 160 | – | – |
| Nc1nc(Nc2ccc(OCCN3CCCC3)cc2)nn1-c1nc(Cl)nc2ccccc12 | 27 | – | 241 | IC50 [11]: 7 nM |
| Nc1nc(Nc2ccc(N3CCN(C4CC5CCC4C5)CC3)cc2)nn1-c1nccc2ccccc12 (racemic) | – | – | – | clearance [3]: 52 mL/min/kg; Vd [4]: 8.8 L/kg; half-life [5]: 2.3 h |
| Nc1nc(Nc2ccc(OCCN3CCCC3)c(F)c2)nn1-c1ccccn1 | 334 | – | – | – |
| Nc1nc(Nc2ccc(OCCN3CCCC3)cc2)nn1-c1ncnc2ccc(F)cc12 | – | – | 126 | – |
| Cc1csc2c(-n3nc(Nc4ccc(N5CCN([C@@H]6C[C@H]7CC[C@@H]6C7)CC5)c(Cl)c4)nc3N)nc(Cl)nc12 | 216 | – | – | – |
| Nc1nc(Nc2ccc(OCCN3CCCC3)cc2)nn1-c1ncnc2ccc(Cl)cc12 | – | – | 14 | – |
| COc1cc2ncnc(-n3nc(Nc4ccc(N5CCN(C6CC7CCC6C7)CC5)c(Cl)c4)nc3N)c2cc1OC (configuration not stated) | – | 47 | > 10000 | clearance [3]: 117 mL/min/kg; Vd [4]: 27 L/kg; half-life [5]: 2.7 h |
| Cc1nc(-n2nc(Nc3ccc(N4CCN(C5CC6CCC5C6)CC4)cc3)nc2N)c2ccccc2n1 (racemic) | – | 104 | – | – |
| CC(C)(C)c1cc2ncnc(-n3nc(Nc4ccc(N5CCN(C6CC7CCC6C7)CC5)c(Cl)c4)nc3N)c2s1 (racemic) | 84 | 80 | – | – |
| Cc1csc2c(-n3nc(Nc4ccc(N5CCN([C@H]6C[C@@H]7CC[C@H]6C7)CC5)c(Cl)c4)nc3N)nc(Cl)nc12 | 136 | – | – | Activity (MDA-MB-231 [12]): 79%; inhibition in vivo at 85 mg/kg (CAKI-1 [13]): 80%; inhibition in vivo at 85 mg/kg (MDA-MB-231 [14]): 69%; inhibition in vivo at 125 mg/kg (MDA-MB-231 [15]): 83%; inhibition in vivo at 100 mg/kg (Mus musculus [16]): 73%; inhibition in vivo at 50 mg/kg (Mus musculus [17]): 50%; Activity (Mus musculus [18]): Toxic; Activity (Mus musculus [19]): Non-Toxic |
